According to PMC2697262 (Biochemistry, 2009):

Assays:
[1] = biological target: orotidine 5’-monophosphate decarboxylase (MtOMPDC) (Methanothermobacter thermautotrophicus, UniProt O26232); experiment: X-ray crystal structure, […] Å; assay type: biochemical
[2] = biological target: orotidine 5’-monophosphate decarboxylase (MtOMPDC) (Methanothermobacter thermautotrophicus, UniProt O26232, D70G)
Chain of orotidine 5’-monophosphate decarboxylase (MtOMPDC) (Methanothermobacter thermautotrophicus, UniProt O26232, D70G) (O26232 whole entry D70G): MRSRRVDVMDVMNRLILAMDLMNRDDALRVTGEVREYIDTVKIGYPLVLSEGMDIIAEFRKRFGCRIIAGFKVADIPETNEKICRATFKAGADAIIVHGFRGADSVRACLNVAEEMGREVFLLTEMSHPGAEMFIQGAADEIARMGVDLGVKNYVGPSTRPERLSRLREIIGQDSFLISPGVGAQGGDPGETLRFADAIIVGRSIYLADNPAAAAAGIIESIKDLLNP

Chain of orotidine 5’-monophosphate decarboxylase (MtOMPDC) (Methanothermobacter thermautotrophicus, UniProt O26232) (O26232 whole entry): as the sequence (O26232 whole entry D70G) above, with G70D counted along it

Row | Ki [1] [µM] | Compound | X-ray crystal structure, 1.3 Å; also H6 exchange by NMR [2]
1 | 100 | O=C1CC(C(=O)O)N([C@@H]2O[C@H](COP(=O)(O)O)[C@@H](O)[C@H]2O)C(=O)N1 (stereo partly drawn) [(6R)-H2OMP] | –
2 | – | O=c1[nH]c(=O)n([C@@H]2O[C@H](COP(=O)(O)O)[C@@H](O)[C@H]2O)cc1F [FUMP] | structures were obtained for D70G in the absence of ligands and complexed with UMP and FUMP
